Consider 4 compounds from article PMC3857906, “Ligand-Specific Regulation of the Endogenous Mu-Opioid Receptor by Chronic Treatment with Mu-Opioid Peptide Agonists” (BioMed Research International, 2013).

Read-outs that look alike come from different tables or passages of the source. Where only a bound is given, the exact number is not on record here.

A short description of assay [1]: Tail-flick (TF) antinociceptive assay after icv peptide administration. The assay is classed as in vivo, rat. Particulars: for treatment duration until behavioral tolerance complete: 10 μg icv twice daily, data not shown. As to the method: For intracerebroventricular (icv) peptide administration, the rats were implanted with a stainless steel Luer cannula (10 mm long) aimed at the right lateral cerebral ventricle under Nembutal (35 mg/kg, intraperitoneally) anesthesia. The stereotaxic coordinates were 0.2 mm posterior, 1.7 mm lateral to the bregma, and 3.7 mm deep from the dural surface, according to the atlas of Pellegrino et al.. Cannulas were secured to the skull with dental cement and acrylate. The experiments were started 5 days after icv cannulation. All icv treatments were delivered to freely moving animals to prevent unspecific effects. Upon conclusion of the experiments, 10 μL of methylene blue was injected into the ventricle of decapitated animals and the position of the cannula was inspected visually. Animals with improper cannula placement were excluded from the final statistical analysis.
The peptides were dissolved in artificial cerebrospinal fluid (CSF) and injected in a volume of 2 μL. Endomorphins were administered either acutely at the indicated doses (100 pg–20 μg) or chronically at 20 μg for 10 days (twice daily) and tested at the indicated times. Vehicle control groups obtaining CSF were used in all experiments, and no changes were detected in the antinociceptive response of the control group. […] Animals were killed 16 hrs after drug treatments by decapitation immediately followed by subcellular fractionation.
The original method of D'Amour was used to determine analgesia in the rat by measuring the time required to respond to a radiating heat stimulus. A beam light was focused on the tip of the tail, and the latency required for the rat to remove its tail was determined before (baseline) and after drug administration. The animals were tested at the times shown after injection of the peptides. The antinociceptive effect was expressed according to the equation: (TFn − TFo) × 100/TFmax − TFo, where TFo is the tail-flick latency before drug administration, TFn is the value of a repeated corresponding measurement after drug injection, and TFmax indicates the cutoff time which was set at 10 sec in our assays. Statistical analysis of the data of tail-flick antinociceptive test was made by ANOVA. For significant ANOVA values, groups were compared by Tukey's test for multiple comparisons with unequal cell size. A probability level, P < 0.05, was accepted to label significant differences.

Assay [2] addresses T1, mu-opioid receptors (G-protein activation) (Rattus norvegicus, UniProt P33535).
T1 construct: from tissue; host or cells: rat brain without cerebella, crude membranes
In words: Ligand-stimulated [35S]GTPγS functional assay in crude rat brain membranes. The assay is classed as biochemical. As to the method: (§1) The assay was performed as published with slight modifications. Briefly, rat brain membrane fractions (≈10 μg of protein) were incubated with [^35S]GTPγS (0.05 nM) and 5-6 concentrations (10^−9−10^−4 M) of opioid peptides in the presence of 100 μM GDP in Tris-EGTA (50 mM Tris-HCl, 1 mM EGTA and 5 mM MgCl2; pH 7.4) buffer in a total volume of 1 mL for 60 min at 30°C. Nonspecific binding was determined with 10 μM GTPγS and subtracted. Bound and free [^35S]GTPγS were separated by vacuum filtration through Whatman GF/F filters using a Brandel M24-R Cell Harvester (Brandel, Gaithersburg, MD, USA). Filters were rapidly washed with 3 × 5 mL ice-cold 50 mM Tris-HCl (pH 7.4) buffer, air-dried, and counted in a toluene-based scintillation cocktail in a Wallac 1409 scintillation counter (Wallac, Turku, Finland). All assays were performed in triplicate and repeated at least three times. Curves were constructed and analyzed by fitting sigmoidal dose-response curves using the GraphPad Prism 4 program (GraphPad Prism Software Inc) to obtain potency (EC50, concentration of the ligand to give half-maximal effect) and efficacy (E max, % maximal stimulation over basal activity) values. Basal activities were measured in the absence of opioid ligands and set as 0%. The data reported are means ± S.E.M.
On the technique in general: GTPγS is a poorly hydrolysed GTP analogue; its binding reports G protein activation.

Assay [3] concerns the target T2, mu-opioid receptors (coupling to G-proteins) (Rattus norvegicus, UniProt P33535).
T2 construct: fresh forebrains of four rats were pooled, gently homogenized; from tissue; host or cells: rat forebrain, synaptic plasma membrane (SPM) and microsomal (MI) fractions, from vehicle- or peptide-treated animals
The experiment in a line: DAMGO-stimulated [35S]GTPγS binding in rat brain subcellular fractions (SPM, MI) after in vivo chronic opioid peptide treatment. The format is biochemical. Particulars: for effect of chronic treatment on G-protein coupling / [35S]GTPγS incorporation: 10 μg icv twice daily for 8 days. The protocol:
The peptides were dissolved in artificial cerebrospinal fluid (CSF) and injected in a volume of 2 μL. […] Animals were killed 16 hrs after drug treatments by decapitation immediately followed by subcellular fractionation.
Subcellular fractions of rat brains were purified as published. Briefly, fresh forebrains of four rats were pooled, gently homogenized in 10 volumes (v/w) of ice-cold buffer (5 mM Tris-HCl pH 7.4, 50 μM CaCl2, 0.5 mM dithiothreitol), and supplemented with 10% sucrose. All sucrose solutions were made in the above buffer. The homogenate was spun at 1,000 ×g for 10 min. The resulting pellet was resuspended in the above buffer and spun again. The combined supernatants were spun at 12,000 ×g for 20 min. The pellets were suspended in 10% sucrose and subjected to consecutive centrifugations at 20,000 ×g for 25 min and 14,000 ×g for 20 min twice resulting in crude synaptic plasma membranes (SPM). The resulting pellets were lysed followed by fractionation on a 10%, 28.5%, and 34% sucrose density step gradient that was spun at 100,000 ×g for 2 h. Highly enriched SPMs were obtained from the 28/34% interface. Crude microsomal (MI) fractions were obtained from the 12,000 ×g supernatant by consecutive centrifugations at 20,000 ×g for 25 min and 100,000 ×g for 1 h. MI fractions were purified on a 10% and 28.5% sucrose step gradient centrifuged at 100,000 ×g for 2 h and collected at 10/28.5% interface. SPM and MI fractions were diluted threefold with 50 mM Tris-HCl buffer and pelleted at 100,000 ×g for 1 h to remove sucrose. The resulting pellets were taken up in 50 mM Tris-HCl (pH 7.4) buffer to yield in 0.3–0.8 mg membrane protein/ml and were freshly used.
as §1

For assay [4] the following is noted: shown previously; cited from earlier work.
Assay [5] addresses T3, mu-opioid receptors (Rattus norvegicus, UniProt P33535). The experiment in a line: [3H]DAMGO homologous displacement binding in rat brain subcellular fractions (SPM, MI) after in vivo treatment. On the set-up: fresh forebrains of four rats were pooled, gently homogenized; from tissue; host or cells: rat forebrain, synaptic plasma membrane (SPM) and microsomal (MI) fractions, from vehicle- or peptide-treated animals. To be noted: chronic treatment, vs vehicle control. As to the method:
The peptides were dissolved in artificial cerebrospinal fluid (CSF) and injected in a volume of 2 μL. Endomorphins were administered either acutely at the indicated doses (100 pg–20 μg) or chronically at 20 μg for 10 days (twice daily) and tested at the indicated times. […] Animals were killed 16 hrs after drug treatments by decapitation immediately followed by subcellular fractionation.
Subcellular fractions of rat brains were purified as published. Briefly, fresh forebrains of four rats were pooled, gently homogenized in 10 volumes (v/w) of ice-cold buffer (5 mM Tris-HCl pH 7.4, 50 μM CaCl2, 0.5 mM dithiothreitol), and supplemented with 10% sucrose. All sucrose solutions were made in the above buffer. The homogenate was spun at 1,000 ×g for 10 min. The resulting pellet was resuspended in the above buffer and spun again. The combined supernatants were spun at 12,000 ×g for 20 min. The pellets were suspended in 10% sucrose and subjected to consecutive centrifugations at 20,000 ×g for 25 min and 14,000 ×g for 20 min twice resulting in crude synaptic plasma membranes (SPM). […]
Filters were rapidly washed with 3 × 5 mL ice-cold 50 mM Tris-HCl (pH 7.4) buffer, air-dried, and counted in a toluene-based scintillation cocktail in a Wallac 1409 scintillation counter (Wallac, Turku, Finland). […]

Assay [6] addresses T3, mu-opioid receptors. Particulars: icv administration, in situ autoradiography; cited from earlier work.

T3 sequence (P33535 whole entry): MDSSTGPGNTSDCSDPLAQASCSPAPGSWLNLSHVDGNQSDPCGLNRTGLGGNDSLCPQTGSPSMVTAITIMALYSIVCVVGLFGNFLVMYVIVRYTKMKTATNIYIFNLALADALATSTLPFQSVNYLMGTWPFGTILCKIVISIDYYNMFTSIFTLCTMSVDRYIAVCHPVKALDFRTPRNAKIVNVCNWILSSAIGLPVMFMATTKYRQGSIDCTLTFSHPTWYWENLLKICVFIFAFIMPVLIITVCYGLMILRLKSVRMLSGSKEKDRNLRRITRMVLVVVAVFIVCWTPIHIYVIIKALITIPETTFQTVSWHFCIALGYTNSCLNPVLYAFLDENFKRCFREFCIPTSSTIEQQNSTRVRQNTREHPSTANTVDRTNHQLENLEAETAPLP
T2 sequence (P33535 whole entry): as above
T1 sequence (P33535 whole entry): as above

In the case of `NC(=O)[C@H](Cc1ccccc1)NC(=O)[C@H](Cc1ccccc1)NC(=O)[C@H]1CCCC[C@H]1NC(=O)[C@@H](N)Cc1ccc(O)cc1` [ACHC-EM2, cis-1S,2R-aminocyclohexanecarboxylic acid^2-endomorphin-2], the “treatment duration until analgesic tolerance complete (antinociceptive effect ceased)” value in assay [1] (20 μg icv twice daily, rat tail-flick) is at most 10 days. Further, the “day by which decrease of antinociceptive effect became statistically significant vs day 1” value in assay [1] (20 μg icv twice daily, tested 5 and 15 min after injection) was at most 5 days. Also, the “time of peak acute antinociceptive effect” value in assay [1] (rat tail-flick, after icv injection) fell in the range of 10 to 15 min. Moreover, the “time by which acute antinociceptive effect dissipated” value in assay [1] (rat tail-flick, following icv injection) is recorded as at most 40 min. Also, the “increase in analgesic response compared to base-line values” in assay [1] (rat tail-flick, icv, lower doses, concentration-dependent) is on record as 20–50%.
For the compound `C[C@@H](NC(=O)[C@@H](N)Cc1ccc(O)cc1)C(=O)NCC(=O)N(C)[C@@H](Cc1ccccc1)C(=O)NCCO` [DAMGO, Tyr-D-Ala-Gly-(NMe)Phe-Gly-ol], in assay [1], the “treatment duration until behavioral tolerance complete” value was at most 8 days. The “agonist character in [35S]GTPγS assay” value in assay [2] is “full agonist”. Further, the “effect of chronic treatment on G-protein coupling / [35S]GTPγS incorporation” value in assay [3] is “did not cause any change”. Also, the Emax in assay [3] (read-out: E max (% over basal) MI Treated) was found to be 72 ± 9%; in assay [3] (read-out: E max (% over basal) SPM Treated), 130 ± 14%; in assay [3] (read-out: efficacy (E max) of DAMGO in control MI, MI of vehicle administered rats, % over basal), 85 ± 9%; in assay [3] (read-out: efficacy (E max) of DAMGO in control SPM, SPM of vehicle administered rats, % over basal), 95 ± 5%. Further, the antinociception entry in assay [4] is listed as “about 80%”. Also, the “time of peak antinociceptive effect” value in assay [4] was “about 30 min”. In assay [5], the “decrease in the density of surface mu-sites (SPM)” value came out at 22%.
As to `COC(=O)/C=C/C(=O)N[C@@H]1CC[C@@]2(O)[C@H]3Cc4ccc(O)c5c4[C@@]2(CCN3CC2CC2)[C@H]1O5` [beta-funaltrexamine], in assay [6], the “reduction of the density of mu-opioid receptors throughout the brain” value is 40–50%.
Take Tyr-D-Ala-Gly-(NMe)Phe-CH2Cl [DAMCK]: in assay [1], the “treatment duration until behavioral tolerance complete” value was at most 8 days. In addition, the “effect of chronic treatment on G-protein coupling / [35S]GTPγS incorporation” value in assay [3] is on record as “attenuated G-protein coupling in the MI fraction”. Moreover, in assay [4], the antinociception entry was “about 80%” and the “duration of antinociception” value is listed as “apparently irreversible antinociception”. Also, in assay [5], the “increase in the density of mu-sites in the MI (light membrane) fraction” value is listed as 40%.
